One molecule from paper PMC11364104, “Discovery of SARS-CoV-2 papain-like protease (PL^pro) inhibitors with efficacy in a murine infection model” (Science Advances, 2024) can be followed below.

SMILES strings stand for the structures.

One data set addresses MERS_Plpro (Middle East respiratory syndrome-related coronavirus, UniProt K9N7C7). Briefly: biochemical. Also on record: species or system MERS-CoV.
A further data set deals with T1, Serotonin Transporter (Homo sapiens, UniProt P31645).
T1 construct: purchased Eurofins Cerep
T1 sequence (P31645 whole entry): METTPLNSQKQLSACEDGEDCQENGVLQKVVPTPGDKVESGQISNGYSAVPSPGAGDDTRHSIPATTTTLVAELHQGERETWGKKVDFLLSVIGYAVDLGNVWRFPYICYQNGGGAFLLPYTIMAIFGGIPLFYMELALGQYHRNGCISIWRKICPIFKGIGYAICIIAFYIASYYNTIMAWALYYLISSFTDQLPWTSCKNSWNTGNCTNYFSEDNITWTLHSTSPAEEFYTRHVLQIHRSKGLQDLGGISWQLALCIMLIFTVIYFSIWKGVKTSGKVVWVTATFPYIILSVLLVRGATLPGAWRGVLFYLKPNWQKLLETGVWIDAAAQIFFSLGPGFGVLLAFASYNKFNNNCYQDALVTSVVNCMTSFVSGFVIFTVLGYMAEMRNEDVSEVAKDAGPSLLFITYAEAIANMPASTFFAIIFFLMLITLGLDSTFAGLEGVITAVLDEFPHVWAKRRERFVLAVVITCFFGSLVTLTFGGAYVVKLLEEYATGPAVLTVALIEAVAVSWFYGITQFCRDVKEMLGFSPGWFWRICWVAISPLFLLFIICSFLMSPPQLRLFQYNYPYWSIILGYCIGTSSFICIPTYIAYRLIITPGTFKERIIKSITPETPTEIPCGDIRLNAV
Briefly: CEREP transporters-binding.

The nature of data set [1]: RRCK passive permeability. Particulars: dog, MDCK.
A further data set concerns Vero E6 cells. Particulars: read-out: Mean CC50; n=3.
The target of a further data set is T2, Human Cathepsin K (Homo sapiens, UniProt P43235).
T2 construct: assay run at Reaction Biology Corporation
T2 sequence (P43235 115-329): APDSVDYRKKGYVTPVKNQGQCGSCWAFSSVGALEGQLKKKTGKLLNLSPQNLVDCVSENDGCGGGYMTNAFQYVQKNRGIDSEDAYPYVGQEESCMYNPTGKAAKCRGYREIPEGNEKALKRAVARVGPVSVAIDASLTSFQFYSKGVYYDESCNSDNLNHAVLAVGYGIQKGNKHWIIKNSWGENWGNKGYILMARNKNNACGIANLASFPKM
Briefly: biochemical.

A further data set has as its system L-Type Ca (verapamil). In words: CEREP ion channel-binding. Particulars: 30 µM.
For a further data set, the target named is T3, Human Caspase 2 (Homo sapiens, UniProt P42575).
T3 construct: assay run at Reaction Biology Corporation
T3 sequence (P42575 170-325 limits assumed): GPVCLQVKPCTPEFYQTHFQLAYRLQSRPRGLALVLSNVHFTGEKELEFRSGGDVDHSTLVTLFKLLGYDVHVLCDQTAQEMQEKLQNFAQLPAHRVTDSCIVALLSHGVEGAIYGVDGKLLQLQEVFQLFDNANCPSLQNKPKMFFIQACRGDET
T3 sequence (P42575 348-452 limits assumed): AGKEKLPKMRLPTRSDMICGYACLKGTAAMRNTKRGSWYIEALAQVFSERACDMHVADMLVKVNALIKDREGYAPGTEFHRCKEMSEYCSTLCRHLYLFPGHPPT
In words: biochemical.

The next data set deals with L-Type Ca (Nifedipine). In words: CEREP ion channel-binding. Conditions: 30 µM.
The test system of data set [2] is Nicotinic Ach Receptor (Neuronal). Briefly: CEREP ion channel-binding. Particulars: 30 µM.
Data set [3] addresses T4, human Cav1.2/β2a/α2δ1 calcium channel (Homo sapiens, UniProt Q13936).
T4 construct: assay run at Metrion Biosciences Ltd; host or cells: HEK
In words: hCav1.2 automated patch clamp. Conditions: read-out: CaV IC50. The data set is classed as cell-based. The protocol: 1000 rcf for 2 min and resuspended in CHO-S-SFM II (Gibco) at a density of 3 million cells […]
Ionic currents were evaluated in the whole-cell configuration using the Qube384 automated planar patch clamp platform (Sophion Bioscience A/S, Ballerup, Denmark). QChip 384X plates, containing 10 patch clamp holes per well, were used to maximize success rate, which was routinely > 95%. For hERG experiments, the external solution was composed of (in mM): 140 NaCl, 2 KCl, 2 CaCl2, 1 MgCl2, 10 HEPES, 5 Glucose, pH 7.4, 350 mOsM. The internal solution contained (in mM): 20 KCl, 10 EGTA, 10 HEPES, 120 KF, pH 7.2, 335 mOsM. The hERG current was elicited from a holding potential of -80 mV by a voltage step to +40 mV for 500 ms, followed by a repolarizing ramp to -80 mV at -0.6 mV/ms. […] Peak hERG current was measured during the ramp. […]
This was followed by the addition of increasing concentrations of test compound, with each exposure lasting 5 minutes. Patch clamp data were analyzed using Analyzer Software 6.4.72 (Sophion Bioscience A/S, Ballerup, Denmark). Current amplitudes were determined by averaging the last 4 currents under each test condition. […]
Hz, and hCav1.2 current was measured as the peak current at 0 mV. […]
exposure lasting 5 minutes. Patch clamp data were analyzed using Analyzer Software 6.4.72. Current amplitudes were determined by averaging the last 4 currents under each test condition. […]

The target in another data set is T5, PDE4D2 (Homo sapiens, UniProt Q08499).
T5 construct: purchased Eurofins Cerep
T5 sequence (Q08499 303-809): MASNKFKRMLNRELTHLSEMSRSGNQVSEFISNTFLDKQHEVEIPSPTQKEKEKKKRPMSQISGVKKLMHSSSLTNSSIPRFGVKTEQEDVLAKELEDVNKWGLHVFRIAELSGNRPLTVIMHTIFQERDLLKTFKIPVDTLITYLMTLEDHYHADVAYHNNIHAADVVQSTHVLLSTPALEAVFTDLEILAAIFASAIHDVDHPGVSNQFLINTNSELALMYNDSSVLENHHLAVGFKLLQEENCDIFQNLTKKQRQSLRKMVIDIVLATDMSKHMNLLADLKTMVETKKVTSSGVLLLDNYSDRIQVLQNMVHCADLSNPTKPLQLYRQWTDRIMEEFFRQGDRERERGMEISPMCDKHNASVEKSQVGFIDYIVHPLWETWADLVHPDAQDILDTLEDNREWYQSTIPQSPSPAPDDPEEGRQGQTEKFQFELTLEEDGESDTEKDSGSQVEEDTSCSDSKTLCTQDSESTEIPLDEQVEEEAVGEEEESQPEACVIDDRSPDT
Briefly: CEREP enzyme inhibition. It is filed as biochemical.

Another data set can be described thus: in vitro. Particulars: both, human, plasma.
Another data set deals with Human Chymotrypsin. The data set is classed as biochemical.
Data set [4] has as its system GABAa (benzodiazepine Site). Briefly: CEREP ion channel-binding. Particulars: 30 µM.

Sequence of MERS_Plpro (K9N7C7 1552-1823 limits assumed): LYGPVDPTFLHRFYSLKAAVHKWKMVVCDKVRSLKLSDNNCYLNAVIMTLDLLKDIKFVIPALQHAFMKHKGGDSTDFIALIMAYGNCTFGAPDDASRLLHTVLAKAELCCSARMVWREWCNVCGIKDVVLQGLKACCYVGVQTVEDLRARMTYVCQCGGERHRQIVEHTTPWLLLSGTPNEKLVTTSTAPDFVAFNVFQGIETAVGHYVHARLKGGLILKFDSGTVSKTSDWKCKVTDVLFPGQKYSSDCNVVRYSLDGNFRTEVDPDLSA

As to `Cc1ccc(N2CCN(C)CC2)cc1C(=O)NC1(c2cc(-c3cnn(C)c3)nc3ccccc23)CC1` [Compound 4], the Ki at MERS_Plpro is greater than 10 µM. For the same molecule, the “activity on MERS PL^pro” value on MERS_Plpro is “nearly inactive”. The values for the inhibition at 30 µM on Serotonin Transporter and against PDE4D2 were 8% and 20%, respectively. The molecule further showed a Papp in data set [1] of 31.4 ×10⁻⁶ cm/s. Besides, in the data set on Vero E6 cells, the CC50 is 78.7 µM. Besides, the IC50 (at Human Cathepsin K; against Human Caspase 2; in [3]; with Human Chymotrypsin) was greater than 100 µM in each case. Also, the “% inhibition” value is -19% in the data set on L-Type Ca (verapamil), -6% in the data set with L-Type Ca (Nifedipine), -6% in data set [2] and 7% in [4]. Further, the fraction unbound in the data set “in vitro” stood at 0.109.

The term Ki denotes the equilibrium dissociation constant of an inhibitor or competing ligand from its target. High values mean lower affinity, low ones higher affinity. As usually defined, the inhibition is the relative decrease from the control value, in per cent. A lower inhibition goes with a weak effect. A word on the Papp: it is a coefficient for how fast a substance crosses the barrier. For orientation: CC50 means the concentration at which the toxic effect on the cells reaches its halfway point. The IC50 is the midpoint of a concentration-inhibition curve. As usually defined, the % inhibition is the change of the read-out against control, counted positive when it falls. What is called fraction unbound is free concentration divided by total concentration. A high value points to weak binding.
